Results as given in ChEMBL document CHEMBL1155722, “Biological and mechanistic activities of xanthorrizol and 4-(1',5'-dimethylhex-4'-enyl)-2-methylphenol isolated from Iostephane heterophylla” (2001).
Values after ≈ are worked out from the molar mass of the structure shown.

Columns and labels:
[1] = system: Escherichia coli; assay: Inhibition of protein synthesis in Escherichia coli assessed as incorporation of [3H]amino acid at 25 ug/mL by LKB Betaplate scintillation counter relative to control; assay type: functional; design: scale not given: the % may be the effect or the level left
[2] = system: Escherichia coli; assay: Inhibition of DNA synthesis in Escherichia coli assessed as incorporation of [3H]thymidine at 25 ug/mL by LKB Betaplate scintillation counter relative to control; assay type: functional; design: scale not given: the % may be the effect or the level left
[3] = system: Escherichia coli; assay: Inhibition of RNA synthesis in Escherichia coli assessed as incorporation of [3H]uridine at 25 ug/mL by LKB Betaplate scintillation counter relative to control; assay type: functional; design: scale not given: the % may be the effect or the level left
[4] = system: Staphylococcus aureus; assay: Antimicrobial activity against Staphylococcus aureus infected in CD1 mouse administered subcutaneously after 30 mins infection measured after 7 days; assay type: functional; conditions: sc
[5] = system: Staphylococcus aureus; assay: Antimicrobial activity against Staphylococcus aureus infected in CD1 mouse administered single oral dose after 7 days; assay type: functional; conditions: 168 h
[6] = Ratio of LD50 for CD1 mouse to ED50 for Staphylococcus aureus infected in single subcutaneously dosed CD1 moue
[7] = system: Staphylococcus aureus; assay: Antimicrobial activity against Staphylococcus aureus after 18 hrs by micro-broth dilution method; assay type: functional
[8] = system: Escherichia coli; assay: Antimicrobial activity against Escherichia coli ATCC 25922 after 18 hrs by microbroth dilution method; assay type: functional; conditions: ATCC 25922, 18 h
[9] = system: Bacillus subtilis; assay: Antimicrobial activity against Bacillus subtilis 327 after 18 hrs by microbroth dilution method; assay type: functional; conditions: Bacillus subtilis, 327, 18 h
[10] = system: Pseudomonas aeruginosa; assay: Antimicrobial activity against Pseudomonas aeruginosa 339 after 18 hrs by microbroth dilution method; assay type: functional; conditions: Pseudomonas aeruginosa, 339, 18 h
[11] = system: Klebsiella pneumoniae; assay: Antimicrobial activity against Klebsiella pneumoniae 425 after 18 hrs by microbroth dilution method; assay type: functional; conditions: Klebsiella pneumoniae, 425, 18 h
[12] = system: Enterococcus faecium; assay: Antimicrobial activity against Enterococcus faecium 436 after 18 hrs by microbroth dilution method; assay type: functional; conditions: Enterococcus faecium, 436, 18 h
[13] = system: Staphylococcus aureus; assay: Antimicrobial activity against methicillin-sensitive Staphylococcus aureus 375 after 18 hrs by microbroth dilution method; assay type: functional; conditions: Staphylococcus aureus, 375, 18 h
[14] = system: Escherichia coli; assay: Antimicrobial activity against Escherichia coli 389 after 18 hrs by microbroth dilution method; assay type: functional; conditions: Escherichia coli, 389, 18 h
[15] = system: Enterococcus faecium; assay: Antimicrobial activity against vancomycin-resistant Enterococcus faecium 379 after 18 hrs by microbroth dilution method; assay type: functional; conditions: Enterococcus faecium, 379, 18 h
[16] = system: Staphylococcus aureus; assay: Antimicrobial activity against Staphylococcus aureus ATCC 25923 after 18 hrs by microbroth dilution method; assay type: functional; conditions: ATCC 25923, 18 h
[17] = system: Staphylococcus aureus; assay: Antimicrobial activity against methicillin-resistant Staphylococcus aureus 310 after 18 hrs by microbroth dilution method; assay type: functional; conditions: Staphylococcus aureus, 310, 18 h
[18] = system: Candida albicans; assay: Antimicrobial activity against Candida albicans 54 after 18 hrs by microbroth dilution method; assay type: functional; conditions: Candida albicans, 54, 18 h
[19] = system: Escherichia coli; assay: Inhibition of protein synthesis in Escherichia coli assessed as incorporation of [3H]amino acid at 128 ug/mL by LKB Betaplate scintillation counter relative to control; assay type: functional; design: scale not given: the % may be the effect or the level left
[20] = system: Escherichia coli; assay: Inhibition of DNA synthesis in Escherichia coli assessed as incorporation of [3H]thymidine at 64 ug/mL by LKB Betaplate scintillation counter relative to control; assay type: functional; design: scale not given: the % may be the effect or the level left
[21] = system: Escherichia coli; assay: Inhibition of protein synthesis in Escherichia coli assessed as incorporation of [3H]amino acid at 32 ug/mL by LKB Betaplate scintillation counter relative to control; assay type: functional; design: scale not given: the % may be the effect or the level left
[22] = system: Escherichia coli; assay: Inhibition of DNA synthesis in Escherichia coli assessed as incorporation of [3H]thymidine at 128 ug/mL by LKB Betaplate scintillation counter relative to control; assay type: functional; design: scale not given: the % may be the effect or the level left
[23] = system: Escherichia coli; assay: Inhibition of RNA synthesis in Escherichia coli assessed as incorporation of [3H]uridine at 128 ug/mL by LKB Betaplate scintillation counter relative to control; assay type: functional; design: scale not given: the % may be the effect or the level left
[24] = system: Escherichia coli; assay: Inhibition of RNA synthesis in Escherichia coli assessed as incorporation of [3H]uridine at 8 ug/mL by LKB Betaplate scintillation counter relative to control; assay type: functional; design: scale not given: the % may be the effect or the level left
[25] = system: Escherichia coli; assay: Inhibition of DNA synthesis in Escherichia coli assessed as incorporation of [3H]thymidine at 8 ug/mL by LKB Betaplate scintillation counter relative to control; assay type: functional; design: scale not given: the % may be the effect or the level left
[26] = system: Escherichia coli; assay: Inhibition of DNA synthesis in Escherichia coli assessed as incorporation of [3H]thymidine at 32 ug/mL by LKB Betaplate scintillation counter relative to control; assay type: functional; design: scale not given: the % may be the effect or the level left
[27] = system: Escherichia coli; assay: Inhibition of RNA synthesis in Escherichia coli assessed as incorporation of [3H]uridine at 64 ug/mL by LKB Betaplate scintillation counter relative to control; assay type: functional; design: scale not given: the % may be the effect or the level left
[28] = system: Escherichia coli; assay: Inhibition of RNA synthesis in Escherichia coli assessed as incorporation of [3H]uridine at 16 ug/mL by LKB Betaplate scintillation counter relative to control; assay type: functional; design: scale not given: the % may be the effect or the level left
[29] = system: Escherichia coli; assay: Inhibition of protein synthesis in Escherichia coli assessed as incorporation of [3H]amino acid at 16 ug/mL by LKB Betaplate scintillation counter relative to control; assay type: functional; design: scale not given: the % may be the effect or the level left
[30] = system: Escherichia coli; assay: Inhibition of protein synthesis in Escherichia coli assessed as incorporation of [3H]amino acid at 64 ug/mL by LKB Betaplate scintillation counter relative to control; assay type: functional; design: scale not given: the % may be the effect or the level left
[31] = system: Escherichia coli; assay: Antimicrobial activity against Escherichia coli 442 after 18 hrs by microbroth dilution method; assay type: functional; conditions: Escherichia coli, 442, 18 h
[32] = system: Escherichia coli; assay: Inhibition of RNA synthesis in Escherichia coli assessed as incorporation of [3H]uridine at 32 ug/mL by LKB Betaplate scintillation counter relative to control; assay type: functional; design: scale not given: the % may be the effect or the level left
[33] = system: Escherichia coli; assay: Inhibition of DNA synthesis in Escherichia coli assessed as incorporation of [3H]thymidine at 16 ug/mL by LKB Betaplate scintillation counter relative to control; assay type: functional; design: scale not given: the % may be the effect or the level left
[34] = system: Escherichia coli; assay: Inhibition of protein synthesis in Escherichia coli assessed as incorporation of [3H]amino acid at 8 ug/mL by LKB Betaplate scintillation counter relative to control; assay type: functional; design: scale not given: the % may be the effect or the level left
[35] = system: Escherichia coli; assay: Inhibition of protein synthesis in Escherichia coli assessed as incorporation of [3H]amino acid at 0.25 ug/mL by LKB Betaplate scintillation counter relative to control; assay type: functional; design: scale not given: the % may be the effect or the level left
[36] = system: Escherichia coli; assay: Inhibition of DNA synthesis in Escherichia coli assessed as incorporation of [3H]thymidine at 0.25 ug/mL by LKB Betaplate scintillation counter relative to control; assay type: functional; design: scale not given: the % may be the effect or the level left
[37] = system: Escherichia coli; assay: Inhibition of RNA synthesis in Escherichia coli assessed as incorporation of [3H]uridine at 0.25 ug/mL by LKB Betaplate scintillation counter relative to control; assay type: functional; design: scale not given: the % may be the effect or the level left

With `O=C(N[C@H](CO)[C@H](O)c1ccc([N+](=O)[O-])cc1)C(Cl)Cl` [CHLORAMPHENICOL] the Activity [1] was 18.96%, the Activity [2] was 82.98% and the Activity [3] was 85.76%.
With `CN[C@H](CC(C)C)C(=O)N[C@H]1C(=O)N[C@@H](CC(N)=O)C(=O)N[C@H]2C(=O)N[C@H]3C(=O)N[C@H](C(=O)N[C@H](C(=O)O)c4cc(O)cc(O)c4-c4cc3ccc4O)[C@H](O)c3ccc(c(Cl)c3)Oc3cc2cc(c3O[C@@H]2O[C@H](CO)[C@@H](O)[C@H](O)[C@H]2O[C@H]2C[C@](C)(N)[C@H](O)[C@H](C)O2)Oc2ccc(cc2Cl)[C@H]1O` [VANCOMYCIN] the ED50 [4] was 1 mg/kg, the ED50 [5] was 230 mg/kg and the “Ratio LD50/ED50” value [6] was greater than 1000.
In the case of `C[C@@]12C[C@@]34CC[C@H]5[C@@](C)(CCC[C@]5(C)C(=O)O)[C@@H]3C[C@H]1[C@H]2C4`, the MIC [7] is reported as 128 µg/mL (≈ 423 µM).
`CC1(C)S[C@@H]2[C@H](NC(=O)Cc3ccccc3)C(=O)N2[C@H]1C(=O)O` [PENICILLIN G] showed an MIC [8] of 128 µg/mL (≈ 383 µM), an MIC [9] of 32 µg/mL (≈ 95.7 µM) and an MIC [10] greater than 128 µg/mL. It also gave an MIC [11] of 128 µg/mL (≈ 383 µM), an MIC [12] of 32 µg/mL (≈ 95.7 µM) and an MIC [13] of 0.06 µg/mL (≈ 0.179 µM). For the same molecule, the MIC [14] was 2 µg/mL (≈ 5.98 µM), the MIC [15] was 32 µg/mL (≈ 95.7 µM) and the MIC [16] was 0.06 µg/mL (≈ 0.179 µM). The MIC [17] was 64 µg/mL (≈ 191 µM) and the MIC [18] was greater than 128 µg/mL.
For `CC(C)=CCC[C@@H](C)c1ccc(C)c(O)c1` [XANTHORRIZOL], the Activity [19] was 17.12%, the ED50 [4] was greater than 32 mg/kg and the MIC [8] was greater than 128 µg/mL. For the same molecule, the MIC [9] was 16 µg/mL (≈ 73.3 µM), the Activity [20] was 7.03% and the MIC [10] was greater than 128 µg/mL. It also gave an Activity [21] of 33.57%, an MIC [11] of 32 µg/mL (≈ 147 µM) and an Activity [22] of 1.52%. The Activity [23] was 1.91%, the Activity [24] was 96.87% and the Activity [25] was 95.33%. For the same molecule, the Activity [26] was 35.75%, the MIC [12] was 16 µg/mL (≈ 73.3 µM) and the Activity [27] was 8.72%. It also gave an Activity [28] of 91.13%, an MIC [13] of 16 µg/mL (≈ 73.3 µM) and an Activity [29] of 96.92%. For the same molecule, the MIC [14] was 32 µg/mL (≈ 147 µM), the Activity [30] was 23.39% and the MIC [15] was 16 µg/mL (≈ 73.3 µM). It also gave an MIC [31] greater than 128 µg/mL, an MIC [16] of 16 µg/mL (≈ 73.3 µM) and an Activity [32] of 48.56%. For the same molecule, the MIC [17] was 32 µg/mL (≈ 147 µM), the MIC [18] was 128 µg/mL (≈ 586 µM) and the Activity [33] was 99.98%. For the same molecule, the Activity [34] was 102.1%.
`CO[C@H]1/C=C/O[C@@]2(C)Oc3c(C)c(O)c4c(O)c(c(/C=N/N5CCN(C)CC5)c(O)c4c3C2=O)NC(=O)/C(C)=C\C=C\[C@H](C)[C@H](O)[C@@H](C)[C@@H](O)[C@@H](C)[C@H](OC(C)=O)[C@@H]1C` [RIFAMPIN] gave an Activity [35] of 27.82%, an Activity [36] of 89.56% and an Activity [37] of 1.17%.
In the case of `CC(C)=CCC[C@@H](C)c1ccc(O)c(C)c1`, the Activity [19] is reported as 25.34%, the MIC [8] is reported as greater than 128 µg/mL and the MIC [9] is reported as 16 µg/mL (≈ 73.3 µM). For the same molecule, the Activity [20] was 37.82%, the MIC [10] was greater than 128 µg/mL and the Activity [21] was 44.2%. For the same molecule, the MIC [11] was 32 µg/mL (≈ 147 µM), the Activity [22] was 30.71% and the Activity [23] was 34.04%. For the same molecule, the Activity [24] was 66.73%, the Activity [25] was 75.57% and the Activity [26] was 48.24%. For the same molecule, the MIC [12] was 16 µg/mL (≈ 73.3 µM), the Activity [27] was 39.08% and the Activity [28] was 60.35%. For the same molecule, the MIC [13] was 16 µg/mL (≈ 73.3 µM), the Activity [29] was 52.28% and the MIC [14] was 32 µg/mL (≈ 147 µM). The Activity [30] was 39.06%, the MIC [15] was 16 µg/mL (≈ 73.3 µM) and the MIC [31] was greater than 128 µg/mL. The MIC [16] was 16 µg/mL (≈ 73.3 µM), the Activity [32] was 50.02% and the MIC [17] was 32 µg/mL (≈ 147 µM). It also gave an MIC [18] of 128 µg/mL (≈ 586 µM), an Activity [33] of 63.06% and an Activity [34] of 68%.
